# Experimental data: patent publication US11027027B2, “Pyridazinoindole compounds and methods for PET imaging” (Vanderbilt University, priority 2015, dated 2021)
# Read-outs that look alike come from different tables or passages of the source.
# Tests used:
# [1] = tested on: C6 glioma; experiment: Dynamic microPET imaging of tracer uptake in C6 glioma-bearing rats; format: in vivo, rat
# Procedure: (§1) Uptake Characteristics of [^18F]-14 in C6 Glioma. The in vivo performance of [^18F]-14 was evaluated in glioma-bearing (C6), male Wistar rats using microPET imaging, with a typical study shown in FIG. 1. MRI (T2-weighted) was used to localize tumors and for registration of anatomical features with PET (FIG. 1A).^11,12,18 Dynamic PET imaging with [^18F]-14 illustrated that the majority of tracer accumulation in the brain was localized to the tumor, with modest accumulation that exceeded plasma in contralateral, non-tumor brain (FIGS. 1B & 1C). The tumor-selective characteristics of [^18F]-14 afforded excellent imaging contrast between tumor and contralateral tissue. FIG. 1G illustrates time—activity curves (TACs) typical of representative studies for tumor (blue), normal brain (green), and plasma (red) over a 90-min dynamic acquisition.
# All studies involving animals were conducted in compliance with federal and institutional guidelines. Two weeks before imaging, healthy male Wistar rats were stereotactically inculcated in the right hemisphere with 1.0×10^5 C6 glioma cells (American Type Tissue Collection). Prior to imaging, all rats were affixed with venous and arterial catheters.
# PET/CT was performed within 24 hours of MRI in rats with confirmed tumors. Tumor-bearing rats were administered [^18F]-14 via jugular catheter while in a microPET Focus 220 scanner (Siemens, Munich, Del.). […]
# [2] = Radio-TLC radiometabolite analysis of plasma; format: in vivo, rat; details: plasma samples, n=2, preliminary
# Procedure: as §1
# Arterial blood (500 μL) was collected at 2, 12, 30, and 60 minutes following injection of 1.5 mCi of [^18F]-14. After centrifugation, the plasma was extracted with acetonitrile/water (50 μL, 7/1, v/v). The mixture was then centrifuged and the supernatant used for TLC analysis in 10% dichloromethane in methanol. Radiochromatographic data were recorded and collected using a radioisotope detector (Bioscan, Washington, D.C., USA).
# [3] = molecular target: T1, TSPO (Rattus norvegicus, UniProt P16257); experiment: In vivo PET displacement study with non-radioactive 14 in C6-bearing rats; set-up: frozen and thawed three times in lysis buffer; endogenous in cells; host or cells: C6 rat glioma cells
# Procedure: Specific Binding of [^18F]-14 in Rats. To evaluate the in vivo TSPO specificity of [^18F]-14, the present inventors performed displacement studies in C6-bearing rats using the non-radioactive analog (14). As shown in the TAC in FIG. 1H, during the dynamic PET study, a bolus (IV) infusion of nonradioactive 14 (10 mg/kg) was administered approximately 30 minutes after injection of [^18F]-14. […] During tumor displacement, the present inventors observed a minor influx of tracer into normal brain (green). The displaced [^18F]-14 then rapidly cleared the normal brain and entered the plasma, subsequently elevating plasma (red) radioactivity.
# PET/CT was performed within 24 hours of MRI in rats with confirmed tumors. Tumor-bearing rats were administered [^18F]-14 via jugular catheter while in a microPET Focus 220 scanner (Siemens, Munich, Del.). Data were collected in list-mode format for 90 minutes, followed by a CT scan (microCAT II; Siemens) for attenuation correction.
# The dynamic PET acquisition was divided into twelve 10-s frames for the first two minutes, three 60-second frames for the following three minutes, and seventeen 300-second frames for the duration of the scan. The raw data within each frame were then binned into three-dimensional sinograms, with a span of three and ring difference of 47. […]
# [4] = molecular target: T1, TSPO; set-up: frozen and thawed three times in lysis buffer; endogenous in cells; host or cells: C6 rat glioma cells; details: cited from earlier work
# [5] = molecular target: T1, TSPO; experiment: Binding affinity to TSPO of fluorescent probes
# Source text: Binding affinity to TSPO of fluorescent probes 23-29.
# [6] = molecular target: T1, TSPO; experiment: TSPO radiometric binding assay, C6 glioma cell lysate, displacement of [3H]PK11195; set-up: frozen and thawed three times in lysis buffer; endogenous in cells; host or cells: C6 rat glioma cells
# Procedure: (§2) Affinities are expressed as Ki±S.E.M. (pM) in Table 1. All experiments were performed in triplicate.
# (§3) Male Wistar rats were sacrificed and the heart and kidney collected and dissected. The tissues were homogenized in 20 volumes of ice-cold PBS buffer (pH 7.4) with a Brinkmann microhomogenizer (Kinematica AG, Luzern, SW). The homogenate was collected at a protein concentration of 5.0 mg/mL and stored at −80° C. C6 cells were collected and washed with PBS buffer three times, and then frozen and thawed three times in lysis buffer (5.0 mM HEPES, 0.21 M D-mannitol, 0.07 M sucrose, 2.0 mM benzamidine, 2.0 mM toluenesulfonyl fluoride, 4.0 mM MgCl2, pH 7.4) to produce C6 cell lysate (0.5 mg/mL). […] The reaction was terminated by rapid filtration through a Brandel harvester (Gaithersburg, Md., USA) and collection onto a filter presoaked with 0.3% polyethyleneimine. Filters were then punched out into scintillation vials and bound radioactivity measured on a Beckman LS 6000 Scintillation Counter (Brea, Calif., USA). […] All experiments were performed in triplicate.
# [7] = molecular target: T1, TSPO; experiment: TSPO radiometric binding assay, kidney lysate, displacement of [3H]PK11195
# Procedure: as §2, §3
# [8] = molecular target: T1, TSPO; experiment: TSPO radiometric binding assay, heart lysate, displacement of [3H]PK11195
# Procedure: as §2, §3
# [9] = molecular target: central benzodiazepine receptor (CBR); details: value used to calculate Ki; read-out: Kd for flunitrazepam; cited from earlier work
# [10] = molecular target: PBR (Homo sapiens, UniProt P30536); details: cited from earlier work
# Chain of PBR (P30536 whole entry, species assumed): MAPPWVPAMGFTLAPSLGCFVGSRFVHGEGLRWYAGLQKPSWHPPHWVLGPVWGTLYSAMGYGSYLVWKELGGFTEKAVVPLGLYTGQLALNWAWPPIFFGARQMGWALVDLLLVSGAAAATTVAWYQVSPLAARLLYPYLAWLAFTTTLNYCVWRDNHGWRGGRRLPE
# [11] = molecular target: central benzodiazepine receptor (CBR); experiment: CBR binding assay, displacement of [3H]flunitrazepam in rat brain (cerebral cortex) lysate; details: rat brain lysate / cerebral cortex membranes; selectivity for TSPO over CBR; read-out: Ki versus [3H]flunitrazepam
# Procedure: as §2
# The homogenate was collected at a protein concentration of 5.0 mg/mL and stored at −80° C. […] All experiments were performed in triplicate.
# [12] = Ki ± S.E.M. versus [3H]PK11195, C6 lysate, high-affinity value where binding is mixed, triplicate, read-out: C6 Glioma Ki
# [13] = Ki ± S.E.M. versus [3H]PK11195, rat heart lysate, triplicate
# [14] = versus [3H]PK11195, C6 lysate, low-affinity component, read-out: C6 Glioma Ki, low-affinity binding (mixed affinity binding)
compound,measurement,setting,value
"CN(C)C(=O)Cc1nn(-c2cccc([18F])n2)c(=O)c2c1c1ccc(Cl)cc1n2C [[^18F]-14, 7-chloro-N,N,5-trimethyl-4-oxo-3(6-[^18F]fluoropyridin-2-yl)-3,5-dihydro-4H-pyridazino[4,5-b]indole-1-acetamide]",tracer accumulation in normal brain and tumor,"[1]; preclinical model of glioma (C6), PET","modest accumulation in normal brain, yet robust accumulation in tumor tissue"
same,plasma clearance of tracer,"[1]; time-activity curve, 90-min dynamic acquisition",quickly cleared the plasma
same,% parent at 60 min,[2],> 90%
same,"tumor binding after injection of 14, % of the peak tumor uptake",[3]; bolus IV nonradioactive 14 (10 mg/kg) about 30 min after tracer,approximately 40%
same,displaceability by non-radioactive 14,[3]; non-radioactive 14 given halfway through the PET scan,fully displaceable
"COc1ccc(OC)c(CN(C(=O)CF)c2ccccc2Oc2ccccc2)c1 [Compound 1, reference compound]",Ki,"[4]; read-out: Ki for TSPO in C6 glioma (reported), literature values",6.17 nM
CCc1cc(CC)n2nc(-c3ccc(OCCCCCCNC(=S)Nc4ccc5c(c4)C(=O)OC54c5ccc(O)cc5Oc5cc(O)ccc54)cc3)c(CC(=O)N(CC)CC)c2n1 [Compound 27],Ki,[5],11.7 ± 4.86 nM
CCc1cc(CC)n2nc(-c3ccc(OCCNC(=S)Nc4ccc5c(c4)C(=O)OC54c5ccc(O)cc5Oc5cc(O)ccc54)cc3)c(CC(=O)N(CC)CC)c2n1 [Compound 23],Ki,[5],13.8 ± 4.99 nM
CCc1cc(CC)n2nc(-c3ccc(OCCCNC(=S)Nc4ccc5c(c4)C(=O)OC54c5ccc(O)cc5Oc5cc(O)ccc54)cc3)c(CC(=O)N(CC)CC)c2n1 [Compound 24],Ki,[5],111 ± 25.6 nM
"CN(C)C(=O)Cc1nn(-c2cccc(Cl)n2)c(=O)c2c1c1ccc(Cl)cc1n2C [Compound 15, 2-(7-Chloro-3-(6-chloropyridin-2-yl)-5-methyl-4-oxo-4,5-dihydro-3H-pyridazino[4,5-b]indol-1-yl)-N,N-dimethylacetamide]",Ki,[6]; [12],0.00234 ± 0.0004 nM
"CN(C)C(=O)Cc1nn(-c2ccccc2F)c(=O)c2c1c1ccc(Cl)cc1n2C [Compound 9, 2-(7-Chloro-3-(2-fluorophenyl)-5-methyl-4-oxo-4,5-dihydro-3H-pyridazino[4,5-b]indol-1-yl)-N,N-dimethylacetamide]",Ki,[7]; read-out: Kidney Ki,0.00118 ± 4e-05 nM
"CN(C)C(=O)Cc1nn(-c2cccc([N+](=O)[O-])c2)c(=O)c2c1c1ccc(Cl)cc1n2C [Compound 11, 2-(7-Chloro-5-methyl-3-(3-nitrophenyl)-4-oxo-4,5-dihydro-3H-pyridazino[4,5-b]indol-1-yl)-N,N-dimethylacetamide]",Ki,[8],0.00118 ± 9e-05 nM
CN1C(=O)CN=C(c2ccccc2F)c2cc([N+](=O)[O-])ccc21 [flunitrazepam],Kd,[9],1.1 nM
CCc1cc(CC)n2nc(-c3ccc(OCCCCCNC(=S)Nc4ccc5c(c4)C(=O)OC54c5ccc(O)cc5Oc5cc(O)ccc54)cc3)c(CC(=O)N(CC)CC)c2n1 [Compound 26],Ki,[5],185 ± 15.4 nM
"CN(C)C(=O)Cc1nn(-c2cccc(Br)n2)c(=O)c2c1c1ccc(Cl)cc1n2C [Compound 16, 2-(7-Chloro-3-(6-bromopyridin-2-yl)-5-methyl-4-oxo-4,5-dihydro-3H-pyridazino[4,5-b]indol-1-yl)-N,N-dimethylacetamide]",Ki,[6]; [12],0.00148 ± 0.0002 nM
COc1ccc(OC)c(CN(C(C)=O)c2cc(F)ccc2Oc2ccccc2)c1 [DAA1106],binding affinity for PBR,[10],fentomolar
"CN(C)C(=O)Cc1nn(-c2ccccn2)c(=O)c2c1c1ccc(Cl)cc1n2C [Compound 13, 2-(7-Chloro-5-methyl-4-oxo-3-(pyridin-2-yl)-4,5-dihydro-3H-pyridazino[4,5-b]indol-1-yl)-N,N-dimethylacetamide]",Ki,[8],4.94 nM
same,Heart Ki,[8]; [13],did not appreciably bind TSPO
same,Kidney Ki,"[7]; Ki ± S.E.M. versus [3H]PK11195, rat kidney lysate, high-affinity value where binding is mixed, triplicate",did not appreciably bind TSPO
same,Ki,[7]; read-out: Kidney Ki,6.8 nM
same,C6 Glioma Ki,"[6]; Ki ± S.E.M. versus [3H]PK11195, C6 lysate, high-affinity value where binding is mixed, triplicate",did not appreciably bind TSPO
same,Ki,[6]; [12],2.41 nM
"CCc1cc(CC)n2nc(-c3ccc(OCC[18F])cc3)c(CC(=O)N(CC)CC)c2n1 [[^18F]-2b, 2-(5,7-diethyl-2-(4-(2-[^18F]fluoroethoxy)phenyl)pyrazolo[1,5-a]pyrimidin-3-yl)-N,N-diethylacetamide]",enhancement in affinity compared to [18F]-2a,[4]; TSPO,36 fold
"CN(C)C(=O)Cc1nn(-c2ccc(F)cc2)c(=O)c2c1c1ccc(Cl)cc1n2C [Compound 12, 2-(7-Chloro-3-(4-fluorophenyl)-5-methyl-4-oxo-4,5-dihydro-3H-pyridazino[4,5-b]indol-1-yl)-N,N-dimethylacetamide]",Ki,"[7]; read-out: Kidney Ki, low-affinity binding (mixed affinity binding)",0.969 nM
same,Ki,[6]; [14],3.02 ± 1.01 nM
CCc1cc(CC)n2nc(-c3ccc(OCCCCCCCCNC(=S)Nc4ccc5c(c4)C(=O)OC54c5ccc(O)cc5Oc5cc(O)ccc54)cc3)c(CC(=O)N(CC)CC)c2n1 [Compound 29],Ki,[5],0.31 ± 0.02 nM
CCc1cc(CC)n2nc(-c3ccc(OCCCCCCCNC(=S)Nc4ccc5c(c4)C(=O)OC54c5ccc(O)cc5Oc5cc(O)ccc54)cc3)c(CC(=O)N(CC)CC)c2n1 [Compound 28],Ki,[5],16.3 ± 5.01 nM
"CN(C)C(=O)Cc1nn(-c2cccc(F)n2)c(=O)c2c1c1ccc(Cl)cc1n2C [Compound 14, 2-(7-Chloro-3-(6-fluoropyridin-2-yl)-5-methyl-4-oxo-4,5-dihydro-3H-pyridazino[4,5-b]indol-1-yl)-N,N-dimethylacetamide]",Ki,[8]; [13],0.00321 ± 0.0004 nM
same,Ki,"[7]; Ki ± S.E.M. versus [3H]PK11195, rat kidney lysate, high-affinity value where binding is mixed, triplicate, read-out: Kidney Ki",0.00221 ± 0.0004 nM
same,Ki,[11],> 10000 nM
same,Ki,[6]; [12],0.00119 nM
same,increase in potency over 2b,"[6]; TSPO, in our lab",1000 fold
same,Ki,[6]; [14],1.77 nM
